Literature values in patent US20200101029A1, “METHOD AND SYSTEM FOR PRESERVING COGNITIVE CAPACITY DURING AGING” (priority 2018, published 2020).
Read-outs that look alike come from different tables or passages of the source.

How the values were obtained:
[1] = 1 gram per day (500 mg twice daily)
[2] = tested on: genetically-engineered fly; details: spermidine feeding during all their lives
[3] = human cohort study
[4] = tested on: mice exposed to bleomycin
[5] = murine models
[6] = tested on: rat model of Alzheimer's disease

O=c1c(O)c(-c2ccc(O)c(O)c2)oc2cc(O)cc(O)c12 [quercetin]
patients with improvement of symptoms of at least 25 percent [1]: more than 67%
tolerability [1]: well tolerated

NCCCCNCCCN [spermidine]
aging-associated abnormal protein (excess presynaptic vesicles in olfactory neurons) [2]: prevented
fly memory over aging [2]: preserved over aging
safety and tolerability of supplementation [3]: safe and excellently tolerated
accumulation of damaging protein in the mouse lung ([4]; pre-treatment with spermidine): could reduce or prevent
removal of established scar tissue in the lung ([4]; subsequent dosing, even at higher dose): did not remove it
safety and tolerability of supplementation [5]: safe and excellently tolerated

Bifidobacterium
effect on memory deficit [6]: improving memory deficit
